Experimental data published in patent US11046691B1 (IDEAYA BIOSCIENCES, INC., priority 2018, dated 2021).
pIC50: −log10 of the molar value.

Target: T1, hMAT2A (Homo sapiens (Human), UniProt P31153)
Test: Malachite Green Assay (MAT2A enzyme inhibition)
Assay type: biochemical
Conditions: hMAT2A 50 nM, substrates 500 uM each, 1 hour
Description: The ability of the compound of present disclosure to inhibit MAT2A enzyme was determined using the Malachite Green or Phosphate Sensor Fluorescence Assay described below.
L-methionine Substrate: Alfa Aesar catalog #J61904
ATP Substrate: Alfa Aesar cat #J60336
Malachite Green Detection Reagent: Millipore Sigma catalog #MAK307-1KT
Assay buffer: 50 mM Tris, pH 7.5/50 mM KCl/10 mM MgCl2/0.01% Brij-35/1 mM DTT/0.1% BGG
The plate was centrifuged at 1000 rpm for 1 minute and then incubated at room temperature for 1 hour. 5 μL of malachite green detection reagent was added to all the test wells and the plate was centrifuged at 1000 rpm for 1 minute and then incubated at room temperature for 30 minutes. The plate was read for absorbance at 620 nm on a plate reader (e.g., Infinite M1000).

T1 sequence (P31153 whole entry): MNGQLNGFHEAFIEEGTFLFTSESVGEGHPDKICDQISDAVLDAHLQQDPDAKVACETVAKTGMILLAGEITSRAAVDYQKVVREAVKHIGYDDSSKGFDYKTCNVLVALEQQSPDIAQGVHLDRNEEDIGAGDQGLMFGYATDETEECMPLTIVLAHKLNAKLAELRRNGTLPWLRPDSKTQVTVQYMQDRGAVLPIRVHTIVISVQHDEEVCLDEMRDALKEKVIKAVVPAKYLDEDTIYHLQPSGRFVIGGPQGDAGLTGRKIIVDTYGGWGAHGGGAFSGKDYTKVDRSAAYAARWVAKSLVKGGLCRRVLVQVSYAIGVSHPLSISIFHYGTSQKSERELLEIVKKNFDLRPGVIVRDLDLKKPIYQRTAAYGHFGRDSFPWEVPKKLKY

Row | pIC50 | SMILES
1 | 6.30 to 6.70 | CNc1nc(=O)n(-c2ccccn2)c2cc(Cl)ccc12
2 | > 6.70 | CNc1nc(=O)n(-c2ncccn2)c2cc(Cl)ccc12
3 | 6.30 to 6.70 | CNc1nc(=O)n(-c2cnccn2)c2cc(Cl)ccc12
4 | > 6.70 | CNc1nc(=O)n(-c2cncnc2)c2cc(Cl)ccc12
5 | > 6.70 | CNc1nc(=O)n(-c2cn[nH]c2)c2cc(Cl)ccc12
6 | > 6.70 | CNc1nc(=O)n(-c2ccccc2)c2cc(Br)ccc12
7 | > 6.70 | CNc1nc(=O)n(-c2cc(O)cc(F)c2)c2cc(Cl)ccc12
8 | > 6.70 | CNc1nc(=O)n(-c2ccccc2)c2cc(Cl)c(F)cc12
9 | > 6.70 | CNc1nc(=O)n(-c2ccccc2)c2cc(Cl)cc(F)c12
10 | 5.00 to 6.00 | CNc1nc(=O)n(-c2ccncc2)c2cc(Cl)ccc12
11 | > 6.70 | CNc1nc(=O)n(-c2ccccc2)c2cc(Cl)ccc12 [Example 2, 7-chloro-4-(methylamino)-1-phenylquinazolin-2(1H)-one]
12 | > 6.70 | CNc1nc(=O)n(-c2nccs2)c2cc(Cl)ccc12 [Example 17, 7-chloro-4-(methylamino)-1-(thiazol-2-yl)-quinazolin-2(1H)-one]
13 | > 6.70 | CNc1nc(=O)n(-c2cncs2)c2cc(Cl)ccc12 [Example 18, 7-chloro-4-(methylamino)-1-(thiazol-5-yl)-quinazolin-2(1H)-one]
14 | 6.30 to 6.70 | O=c1nc(NC2COC2)c2ccc(Cl)cc2n1-c1ccccc1 [Example 21, 7-Chloro-4-(oxetan-3-ylamino)-1-phenylquinazolin-2(1H)-one]
15 | 6.30 to 6.70 | O=c1nc(N[C@H]2CCOC2)c2ccc(Cl)cc2n1-c1ccccc1 [Example 22, (S)-7-chloro-1-phenyl-4-((tetrahydro-furan-3-yl)amino)-quinazolin-2(1H)-one]
16 | 6.30 to 6.70 | O=c1nc(NCc2ccccc2)c2ccc(Cl)cc2n1-c1ccccc1 [Example 23, 4-(benzylamino)-7-chloro-1-phenyl-quinazolin-2(1H)-one]
17 | > 6.70 | O=c1nc(N2CCC2)c2ccc(Cl)cc2n1-c1ccccc1 [Example 25, 4-(azetidin-1-yl)-7-chloro-1-phenyl-quinazolin-2(1H)-one]
18 | > 6.70 | O=c1nc(N2CC[C@H](O)C2)c2ccc(Cl)cc2n1-c1ccccc1 [Example 26, (S)-7-chloro-4-(3-hydroxypyrrolidin-1-yl)-1-phenylquinazolin-2(1H)-one]
19 | 5.00 to 6.00 | CN1CCN(c2nc(=O)n(-c3ccccc3)c3cc(Cl)ccc23)CC1 [Example 27, 7-chloro-4-(4-methylpiperazin-1-yl)-1-phenyl-quinazolin-2(1H)-one]
20 | 6.30 to 6.70 | O=c1nc(N2CCOCC2)c2ccc(Cl)cc2n1-c1ccccc1 [Example 28, 7-chloro-4-morpholino-1-phenyl-quinazolin-2(1H)-one]

Target: T1, hMAT2A
Test: Phosphate Sensor Fluorescence Assay (MAT2A enzyme inhibition)
Assay type: biochemical
Conditions: L-methionine 500 uM, ATP 500 uM, class symbols
Procedure, shortened: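 Recombinant MAT2A preincubated 15 min at room temperature with compound, then reacted 1 h at room temperature with 500 uM L-methionine and 500 uM ATP in Tris pH 7.5 buffer containing PNP/7-MEG.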

Row | SMILES | pIC50
21 | O=c1nc(N2CC[C@@H](O)C2)c2ccc(C(F)(F)F)cc2n1-c1ccccc1Cl [Example 395, 4-((3R)-3-hydroxypyrrolidin-1-yl)-1-(2-chlorophenyl)-7-(trifluoromethyl)hydro-quinazolin-2-one] | > 6.70
22 | COc1nc(=O)n(-c2ccccc2)c2nc(C)ccc12 [Example 396, 4-methoxy-7-methyl-1-phenylpyrido-[2,3-d]pyrimidin-2(1H)-one] | 6.30 to 6.70
23 | Cc1ccc2c(NCC(F)(F)F)nc(=O)n(-c3ccccc3)c2n1 [Example 397, 7-methyl-1-phenyl-4-[(2,2,2-trifluoro-ethyl)amino]pyrido[2,3-d]pyrimidin-2(1H)-one] | > 6.70
24 | Cc1ccc2c(NCC(F)F)nc(=O)n(-c3ccccc3)c2n1 [Example 398, 4-[(2,2-difluoroethyl)amino]-7-methyl-1-phenylpyrido[2,3-d]pyrimidin-2(1H)-one] | > 6.70
25 | COc1nc(=O)n(-c2ccccc2)c2cc(C3CC3)ccc12 [Example 399, 7-cyclopropyl-4-methoxy-1-phenyl-hydroquinazolin-2-one] | > 6.70

Further lines, results first:

Row | pIC50 | SMILES
26 | > 6.70 | Nc1nc(=O)n(-c2ccccc2)c2cc(C3CC3)ccc12 [Example 400, 4-amino-7-cyclopropyl-1-phenylhydro-quinazolin-2-one]
27 | 6.30 to 6.70 | CNc1nc(=O)n(-c2cccc(Br)c2)c2cc(Cl)ccc12 [Example 401, 1-(3-bromophenyl)-7-chloro-4-(methylamino)hydroquinazolin-2-one]
28 | 6.00 to 6.30 | CNc1nc(=O)n(-c2ccccc2)c2cc(Cl)cc(OCCN)c12 [Example 402, 5-(2-aminoethoxy)-7-chloro-4-(methyl-amino)-1-phenylhydroquinazolin-2-one]
29 | 5.00 to 6.00 | CS(=O)(=O)CCNc1nc(=O)n(-c2ccccc2Cl)c2cc(C3CC3)c(C#N)cc12 [Example 403, 1-(2-chlorophenyl)-7-cyclopropyl-4-((2-(methylsulfonyl)ethyl)amino)-2-oxo-1,2-dihydroquinazoline-6-carbonitrile]
30 | > 6.70 | COc1nc(=O)n(-c2cccnc2C)c2cc(C(F)(F)F)ccc12 [Example 405]
31 | 6.30 to 6.70 | CNc1nc(=O)n(-c2ccccc2Cl)c2cc(C3CC3)cc(OC(F)F)c12 [Example 406, 5-(difluoromethoxy)-1-(2-chlorophenyl)-7-cyclopropyl-4-(methylamino)hydro-quinazolin-2-one]
32 | > 6.70 | COc1cc(C2CC2)cc2c1c(NCC1(F)CC1)nc(=O)n2-c1ccccc1Cl [Example 407, 1-(2-chlorophenyl)-7-cyclopropyl-4-{[(fluorocyclopropyl)methyl]amino}-5-methoxyhydroquinazolin-2-one]
33 | 6.00 to 6.30 | N#Cc1cc2c(NCC3CCO3)nc(=O)n(-c3ccccc3Cl)c2cc1C1CC1 (stereo not shown) [Example 408, 1-(2-chlorophenyl)-7-cyclopropyl-4-((oxetan-2-ylmethyl)amino)-2-oxo-1,2-dihydroquinazoline-6-carbonitrile]
34 | > 6.70 | N#Cc1cc2c(NCC3CC3)nc(=O)n(-c3ccccc3Cl)c2cc1C1CC1 [Example 409, 1-(2-chlorophenyl)-7-cyclopropyl-4-((cyclopropylmethyl)amino)-2-oxo-1,2-dihydroquinazoline-6-carbonitrile]
35 | > 6.70 | CCc1cc(C2CC2)cc2c1c(NC)nc(=O)n2-c1ccccc1C [Example 410, 7-cyclopropyl-5-ethyl-4-(methylamino)-1-(2-methylphenyl)hydroquinazolin-2-one]
36 | > 6.70 | O=c1nc(NCC2CC2)c2cc(Cl)c(C3CC3)cc2n1-c1ccccc1Cl [Example 411]
37 | > 6.70 | O=c1nc(Nc2cnoc2)c2cc(Cl)c(Br)cc2n1-c1ccccc1Cl [Example 412, 7-bromo-6-chloro-1-(2-chlorophenyl)-4-(isoxazol-4-ylamino)hydroquinazolin-2-one]
38 | > 6.70 | O=c1nc(N[C@@H]2C[C@@H]2F)c2ccc(C3CC3)cc2n1-c1ccccc1Cl [Example 413, 4-[((2S,1R)-2-fluorocyclopropyl)amino]-1-(2-chlorophenyl)-7-cyclopropyl-hydroquinazolin-2-one]
39 | > 6.70 | CNc1nc(=O)n(-c2ccccc2)c2nc(C(C)C)ccc12 [Example 414, 4-(methylamino)-7-(methylethyl)-1-phenylpyrido[2,3-d]pyrimidin-2(1H)-2-one]
40 | > 6.70 | CNc1nc(=O)n(-c2ccccc2Cl)c2cc(C3CC3)c(Br)cc12 [Example 417, 6-bromo-1-(2-chlorophenyl)-7-cyclo-propyl-4-(methylamino)hydro-quinazolin-2-one]
41 | > 6.70 | O=c1nc(N[C@H]2C[C@@H]2F)c2ccc(OC(F)(F)F)cc2n1-c1ccccc1Cl [Example 418, 1-(2-chlorophenyl)-4-(((1S,2S)-2-fluorocyclopropyl)amino)-7-(trifluoro-methoxy)quinazolin-2(1H)-one]
42 | > 6.70 | CNc1nc(=O)n(-c2cccc(CC(=O)O)c2)c2cc(Cl)ccc12 [Example 419, 2-(3-(7-chloro-4-(methylamino)-2-oxoquinazolin-1(2H)-yl)phenyl)acetic acid]
43 | > 6.70 | CNc1nc(=O)n(-c2ccccc2)c2cc(C(F)(F)F)cc(F)c12 [Example 420, 5-fluoro-4-(methylamino)-1-phenyl-7-(trifluoromethyl)hydroquinazolin-2-one]
44 | > 6.70 | O=c1nc(Nc2ccncc2)c2ccc(C(F)(F)F)nc2n1-c1ccccc1Cl [Example 421, 1-(2-chlorophenyl)-4-(pyridin-4-yl-amino)-7-(trifluoromethyl)pyrido[2,3-d]-pyrimidin-2(1H)-one]
45 | > 6.70 | O=c1nc(OC2CC2)c2ccc(C(F)(F)F)nc2n1-c1ccccc1Cl [Example 422, 1-(2-chlorophenyl)-4-cyclopropoxy-7-(trifluoromethyl)pyrido[2,3-d]pyrimidin-2(1H)-one]
46 | > 6.70 | COc1nc(=O)n(-c2ccccc2Cl)c2cc(C3CC3)ccc12 [Example 423, 1-(2-chlorophenyl)-7-cyclopropyl-4-methoxyhydroquinazolin-2-one]
47 | > 6.70 | O=c1nc(N[C@H]2C[C@H]2F)c2ccc(C(F)(F)F)cc2n1-c1ccccc1 [Example 424, 4-(((1S,2R)-2-fluorocyclopropyl)amino)-1-phenyl-7-(trifluoromethyl)quinazolin-2(1H)-one]
48 | > 6.70 | CC(F)(F)c1ccc2c(NCC3CC3)nc(=O)n(-c3ccccc3Cl)c2c1 [Example 425, 1-(2-chlorophenyl)-4-((cyclopropyl-methyl)amino)-7-(1,1-difluoroethyl)-quinazolin-2(1H)-one]
49 | > 6.70 | CNc1nc(=O)n(-c2ccccc2Cl)c2cc(C3CC3)ccc12 [Example 426, 1-(2-chlorophenyl)-7-cyclopropyl-4-(methylamino)quinazolin-2(1H)-one]
